{"source": "patent US7101867B2", "about": "“Benzofuran derivatives, their production and use” (Takeda Pharmaceutical Company Limited, priority 1998, dated 2006)"}
{"system": "Human neuroblastoma SK-N-SH cells", "experiment": "Cytoprotection in human neuroblastoma SK-N-SH cells against a PI-3-kinase inhibitor, LY-294002", "type": "cell-based", "conditions": "test compound 1.0 μM with LY-294002 30 μM; survival by Alamarblue reduction one day after initiation; (A−B)/(C−B)×100", "procedure": "Cytoprotection in human neuroblastoma SK-N-SH cells against a PI-3-kinase inhibitor, LY-294002\nHuman neuroblastoma SK-N-SH cells were purchased from American Type Cell Culture (ATCC). DMEM/F-12 culture medium and potassium/magnesium-free phosphate buffer saline (PBS(−)) were purchased from Nikken Biomedical Co., Ltd., N2 additives and EDTA solution from GIBCO BRL Company, fetal bovine serum (FCS) and a mixed solution of penicillin (5000 U/ml) and streptomycin (5 mg/ml) from BioWhittaker Inc., Alamarblue™ reagent from Wako Pure Chemical Industries Ltd., culture flasks from Falcon Company, collagen-coated 96-well multi-plates from Iwaki Glass Co., Ltd., and LY-294002 from Alexis Biochemicals, respectively. As for other reagents, commercially available guaranteed reagents were used.\nBy using DMEM/F-12 culture medium which contains 5% FCS, 0.5% N2, 10 mM HEPES, and a 1% mixed solution of penicillin (5000 U/ml) and streptomycin (5 mg/ml), SK-N-SH cells were subcultured in a carbon dioxide incubator under a mixed gas atmosphere consisting of 10% carbon dioxide and 90% air. After being cultivated to a sub-confluent stage, the cells were detached by a PBS(−) solution containing 2.5 mM EDTA and seeded onto collagen-coated 96-well multi-plates in the proportion of 1.0×10^4 cells/100 μl/well. After cultivation for 24 hours, the cells thus prepared were used for the cytoprotection assay.\n(§1) There was removed 80 μl of the culture medium of SK-N-SH cells that was cultivated as described above on 96-wells, collagen-coated, multi-plates and thereto were added at the same time 40 μl each of LY-294002 of the final concentrations of 30 μM and each test compound the final concentrations of that was adjusted to be 1.0 μM, to initiate the cytotoxicity test. Hereupon, each test compound was used after adjusting the concentration to be 10 mM with dimethyl sulfoxide and LY-294002 was used after adjusting the concentration to be 100 mM with dimethyl sulfoxide, each of which was diluted prior to its use in the test.\nThe survival activity of nerve cells that were still living one day after initiation of the cytotoxicity test was determined by the activity of the cells to reduce the Alamarblue™ reagent as an index. There was removed 20 μl of the culture medium and 20 μl of Alamarblue™ reagent was added. The amount of Alamarblue™ reagent reduced by the cells over the period of 4 hours was calorimetrically determined (measurement wave length: 570 nm; reference wave length: 600 nm) By using a plate reader (WAKO SPECTRAMAX 250 Microplate Reader). Cytoprotection activity was calculated according to the following equation. Cytoprotection activity of each compound=(A−B)/(C−B)×100(%) • A: The survival activity of the group consisting of a test compound and LY-294002 added • B: The survival activity of the group consisting of LY-294002 added • C: The survival activity of the control group\nThe cytoprotection activity of each compound was obtained By using at least 4 wells for every dose of a test compound.\nCytoprotection in Human Neuroblastoma SK-N-SH Cells Against a PI-3-kinase Inhibitor, LY-294002\nas §1, with “cytotoxicity assay.” for “cytotoxicity test.”\nThe survival activity of nerve cells that were still living one day after initiation of the cytotoxicity test was determined by the activity of the cells to reduce the Alamarblue™ reagent as an index. […]", "units": {"Cytoprotection Activity (%)": "%"}}
{"compound": "COc1cc2c(cc1OC)CN(c1c(C)c(C)c3c(c1C)C(c1ccc(C)cc1)C(C)(C)O3)C2", "note": "(stereo not shown) [Example 6a, 5,6-dimethoxy-2-[2,2,4,6,7-pentamethyl-3-(4-methylphenyl)-2,3-dihydro-1-benzofuran-5-yl]isoindoline]", "Cytoprotection Activity (%)": 28.2}
{"compound": "Cc1ccc(C2c3c(C)c(-n4cc5cc6c(cc5c4)OCO6)c(C)c(C)c3OC2(C)C)cc1", "note": "(stereo not shown) [Example 14a, 6-[2,2,4,6,7-pentamethyl-3-(4-methylphenyl)-2,3-dihydro-1-benzofuran-5-yl]-6H-[1,3]dioxolo[4,5-f]isoindole]", "Cytoprotection Activity (%)": 26.6}
{"compound": "Cc1c(C)c2c(c(C)c1NC(=O)c1ccc(Cl)cc1)C(c1ccc(C(C)C)cc1)C(C)(C)O2", "note": "(stereo not shown) [Example 20b, 4-Chloro-N-[3-(4-isopropylphenyl)-2,2,4,6,7-pentamethyl-2,3-dihydro-1-benzofuran-5-yl]benzamide]", "Cytoprotection Activity (%)": 12.6}
{"compound": "Cc1c(C)c2c(c(C)c1NC(=O)c1ccc3c(c1)OCO3)C(c1ccc(C(C)C)cc1)C(C)(C)O2", "note": "(stereo not shown) [Example 22b, N-[3-(4-Isopropylphenyl)-2,2,4,6,7-pentamethyl-2,3-dihydro-1-benzofuran-5-yl]-1,3-benzodioxol-5-carboxamide]", "Cytoprotection Activity (%)": 12.8}
{"compound": "Cc1c(C)c2c(c(C)c1NC(=O)c1cccs1)C(c1ccc(C(C)C)cc1)C(C)(C)O2", "note": "(stereo not shown) [Example 24b, N-[3-(4-Isopropylphenyl)-2,2,4,6,7-pentamethyl-2,3-dihydro-1-benzofuran-5-yl]-2-thiophenecarboxamide]", "Cytoprotection Activity (%)": 16.4}
{"compound": "COc1ccc(CNc2c(C)c(C)c3oc(C)c(-c4ccc(C(C)C)cc4)c3c2C)cc1", "note": "[Example 45b, 3-(4-isopropylphenyl)-N-(4-methoxybenzyl)-2,4,6,7-tetramethyl-1-benzofuran-5-amine]", "Cytoprotection Activity (%)": 20.6}
{"compound": "COc1ccc(C(=O)Nc2c(C)c(C)c3c(c2C)C(c2ccc(C(C)C)cc2)C2(CCN(C)CC2)O3)cc1", "note": "(stereo not shown) [Example 52b, N-[3-(4-Isopropylphenyl)-1′,4,6,7-tetramethylspiro[benzofuran-2(3H),4′-piperidine]-5-yl]-4-methoxybenzamide]", "Cytoprotection Activity (%)": 16.4}
